Measured values taken from patent US9549978B2, “Amino acid sequences for controlling pathogens” (CENTRO DE INGENIERIA GENETICA Y BIOTECHNOLOGIA, priority 2011, dated 2017).

What was measured:
A. hydrophila (Gram−) = assay: Microdilution antimicrobial activity (MIC/IC50); type: cell-based
Protocol: (§1) The peptides of the invention were also obtained by chemical synthesis using methods known to those skilled in this technical field. The antimicrobial activity of the peptides was determined by the microdilution method. To determine the minimum inhibitory concentration (MIC), each peptide was serially diluted 1:2. Ten microliters of each diluted peptide were incubated with 90 μL of the bacteria or yeast suspension (5×10^5 CFU (colony forming units) per mL) in Mueller Hinton broth (bacteria) or Sabouraund broth (fungi) and incubated for 18 h at 28° C. (for fish pathogens and fungi) or 37° C. (for mammalian pathogens). The MIC is defined as the lowest peptide concentration at which inhibition of bacterial growth occurs. All assays were performed in triplicate, and culture medium (without microorganism) and microorganisms to which no peptide was added were used as controls.

[1] = system: Bacillus subtilis (Gram+); assay: Microdilution antimicrobial activity (MIC/IC50); type: cell-based; details: for IC50: read-out: IC50 (peptide concentration that produces 50% of bacterial growth inhibition)
Protocol: as §1

[2] = system: Candida albicans (fungus); assay: Microdilution antimicrobial activity (MIC/IC50); type: cell-based; details: for MIC: Sabouraund broth, 28° C.; for IC50: read-out: IC50 (peptide concentration that produces 50% of bacterial growth inhibition)
Protocol: as §1

E.coli (Gram−) = assay: Microdilution antimicrobial activity (MIC/IC50); type: cell-based; details: for IC50: read-out: IC50 (peptide concentration that produces 50% of bacterial growth inhibition)
Protocol: as §1

[3] = system: Edwardsiella tarda (Gram−); assay: Microdilution antimicrobial activity (MIC/IC50); type: cell-based; details: for IC50: read-out: IC50 (peptide concentration that produces 50% of bacterial growth inhibition)
Protocol: as §1

[4] = system: Pseudomonas aeuroginosa (Gram−); assay: Microdilution antimicrobial activity (MIC/IC50); type: cell-based; details: for IC50: read-out: IC50 (peptide concentration that produces 50% of bacterial growth inhibition)
Protocol: as §1

[5] = system: Staphylococcus aureus (Gram+); assay: Microdilution antimicrobial activity (MIC/IC50); type: cell-based; details: for MIC: 18 h, Mueller Hinton broth; for IC50: read-out: IC50 (peptide concentration that produces 50% of bacterial growth inhibition)
Protocol: as §1

Vibrio sp. (Gram−) = assay: Microdilution antimicrobial activity (MIC/IC50); type: cell-based; details: for IC50: read-out: IC50 (peptide concentration that produces 50% of bacterial growth inhibition)
Protocol: as §1

Aeromonas hydrophila = assay: Resistance to A. hydrophila challenge in tilapia, peptides by intraperitoneal injection; type: in vivo, tilapia (O. niloticus); details: LD50 challenge, mortality recorded 7 days, compared to PBS group
Protocol: We proceeded to evaluate the utility of antimicrobial peptides to enhance disease resistance in vivo. In a first test, we used 130 tilapias (O. niloticus) with a body weight of 10 g, which were randomly distributed in 13 experimental groups of ten animals per group. This assay was performed in order to determine the minimum time of treatment required to enhance the survival of fish against challenge with A. hydrophila. Each peptide was administered at a concentration of 1 μg per fish by intraperitoneal injection, for 2, 4, 8 and 15 days. An additional group was placed which PBS was administered as a control. The experimental groups were:
After the time of peptide administration, we performed a challenge test by intraperitoneal injection of the median lethal dose (LD50) of A. hydrophila, and mortality was recorded during 7 days. We calculated the relative percent of survival (RPS) as: RPS (%)=(% mortality controls−% mortality treated)/(% mortality controls)×100
A second test was performed to determine the optimal dose of peptide required to increase the survival of the fish following challenge with A. hydrophila. We used 130 tilapias (O. niloticus), with a body weight of about 10 g, which were randomly distributed in 13 experimental groups of 10 animals each. Each peptide was administered at a concentration of 0.5, 1, 5 and 10 μg per fish for 15 days. The experimental groups were:
After 15 days of peptide administration, we performed a challenge test by is intraperitoneal injection of the LD50 of A. hydrophila, and mortality was recorded during 7 days. RPS was calculated as described above.

[6] = read-out: EC50 (LPS binding/neutralization); 0.5 EU/ml LPS, 37° C., 30 min, LAL
Protocol: Besides the antimicrobial activity and the possibility of increase disease resistance, we studied the ability of antimicrobial peptides of the present invention to neutralize LPS, by the Limulus amebocyte lysate (LAL) test. This assay detects the presence of free LPS unneutralized. Various concentrations of peptides were incubated with 0.5 EU/ml of LPS at 37° C. for 30 min. LPS alone was used as positive control of the assay. Subsequently, were added 100 μL of the mixture to equal volume of LAL reagent. The kinetic of the turbidity was measured using the equipment Tube Reader ATi-321 (Lab Kinetics, UK).

OVA [7] = assay: Cytokine secretion by OVA-stimulated splenocytes of immunized mice, ELISA; type: in vivo, BALB/c mice
Protocol: FIG. 8. IFN-γ secretion by spleen cells isolated from immunized animals. […] Bars represent the concentration of IFN-γ±standard deviation (n=5). Statistical analysis of the data was performed by ANOVA test and Bonferroni's multiple comparison test (*: p<0.05, ***:p<0.001).
Animals were immunized on days 0 and 14, and blood extractions were performed on days 0, 14 and 21. The serums of animals were used for determination of specific antibody titers (total IgG, IgG1 and IgG2a). At 59 days from the beginning of the experiment was extracted the spleen from the mice to determine the cellular immune response against the antigen OVA. The spleen was extracted under aseptic conditions and the splenocytes were isolated and were seeded 2.5×10^5 cells, at a cell concentration of 2×10^6 cells/mL in 96-well round bottom plate. Cells were stimulated with Concanavalin A (5 μg/ml) or OVA (10 μg/mL) and incubated at 37° C., 5% CO2 for 4 days. Culture supernatants were collected and used for analysis of the levels of interleukin-4 and interferon-γ by ELISA.

OVA [8] = assay: Co-immunization with OVA in mice, second immunization schedule, antibody titers by ELISA; type: in vivo, BALB/c mice
Protocol: FIG. 7. Titers of total immunoglobulin G (IgG) (A), IgG1 and IgG2a (B) induced in mice by immunization with OVA co-administered with the peptides Oreochromicin I, Oreochromicin II and Oreochromicin III. Male Balb/c mice (8/group) were immunized by intraperitoneal injection on days 0 and 14 with OVA alone (5 μg/animal) or in combination with peptides at the doses of 0.238×10^20 molecules/animal (equivalent to 0.1, 0.12 and 0.14 μg/animal for Oreochromicina I, II and III, respectively) and 2.38×10^20 molecules/animal (equivalent to 1, 1.2 and 1.4 μg/animal for Oreochromicina I, II and III, respectively). The negative control group was injected with 0.1 mL of PBS. The OVA-specific humoral immune response (total IgG) was tested at 14 and 21 days after the first immunization. IgG1 and IgG2a antibody titers were analyzed at 21 days after the first immunization. The OVA-specific antibody titers were determined by ELISA. (A) Total IgG titers. Bars represent the IgG titer standard error (n=8). Statistical analysis was performed using a Kruskal-Wallis test and the Dunn multiple comparison test. Asterisks represent significant differences with the PBS group (* indicates p<0.05, ***indicates p<0.001). (B) IgG1 and IgG2a titers. Bars represent the antibody titer±standard error (n=8). Statistical analysis was performed using Mann Whitney test (*denotes p<0.05).
64 BALB/c male mice were selected, which were 6 weeks old, and were separated into 8 experimental groups of 8 mice each. Administration of the immunogens was is conducted by intraperitoneal injection in a volume of 0.1 mL. The antimicrobial peptides were administered in equimolar amounts (0.238×10^20 molecules and 2.38×10^20 molecules). The experimental groups were:
Animals were immunized on days 0 and 14, and blood extractions were performed on days 0, 14 and 21. The serums of animals were used for determination of specific antibody titers (total IgG, IgG1 and IgG2a). At 59 days from the beginning of the experiment was extracted the spleen from the mice to determine the cellular immune response against the antigen OVA. […]

MY32 = assay: Co-immunization with MY32 antigen in tilapia, IgM titers by ELISA; type: in vivo, tilapia (O. niloticus); details: MY32 1 μg/g + peptide 10 μg/animal, adjuvanted in Montanide 888; p<0.05
Protocol: FIG. 9. IgM titers induced by immunization of tilapia (O. niloticus) with MY32 protein co-administered with the antimicrobial peptide Oreochromicin I. Fish (10 fish/group) were immunized by intraperitoneal injection on days 0 and 14. The negative control group was injected with 0.3 mL of PBS. The humoral immune response specific for MY32 was analyzed at 14, 21 and 28 days after the first immunization. The IgM antibody titers specific for MY32 were determined by ELISA. Bars represent the IgM titer±standard error (n=10). Statistical analysis of the data was performed by ANOVA and the Newman-Keuls multiple comparison test (*indicates p<0.05).
To assess the ability of the peptide Oreochromicin I as molecular adjuvant in tilapia was used as vaccine antigen the protein MY32, previously known (Carpio et al. (2011) Vaccine 29: 2810-2820).
Six experimental groups were formed of 10 tilapias (O. niloticus) each with an s average weight of 45 g. The route of administration was intraperitoneal, the immunogen was applied in an injection volume of 0.3 mL. The experimental groups were:
The animals were immunized on days 0 and 14, and blood extractions were performed on days 0, 14, 21 and 28. The serums of the animals were used for the determination of IgM specific antibody titers.

Sequence	MIC (A. hydrophila (Gram−))	MIC [1]	IC50 [1] [µM]	MIC [2]	IC50 [2] [µM]	MIC (E.coli (Gram−))	IC50 (E.coli (Gram−)) [µM]	MIC [3]	IC50 [3] [µM]	MIC [4]	IC50 [4] [µM]	MIC [5]	IC50 [5] [µM]	MIC (Vibrio sp. (Gram−))	IC50 (Vibrio sp. (Gram−)) [µM]	EC50 [6] [µM]	increase in survival (RPS, relative percent of survival) (Aeromonas hydrophila; 1 μg per fish i.p. for 15 days) [%]	other results
FIHHIIGGLFSAGKAIHRLIRRRRR [Oreochromicin II, also recombinant or chemically synthesized]	MIC = 160 μM	MIC = 1.7 μM	0.589	MIC = 26.7 μM	12.9	MIC = 5 μM	2.29	MIC = 20 μM	2.08	MIC = 6.67 μM	3.75	MIC = 5 μM	2.02	MIC = 15 μM	2.5	1.41		IC50 (A. hydrophila (Gram−); read-out: IC50 (peptide concentration that produces 50% of bacterial growth inhibition)): 30.4 µM; increase in survival (RPS, relative percent of survival) (Aeromonas hydrophila; 1 μg per fish i.p. for 8 days): 48%; levels of secretion of IFN-γ vs OVA or PBS alone (OVA [7]; splenocytes stimulated with OVA, peptide 1.2 μg/animal, p<0.05): significantly higher
FIHHIIGGLFSVGKHIHGLIHGH [Oreochromicin I, also recombinant or chemically synthesized]	Did not inhibit	MIC = 3 μM	1.37	MIC = 20 μM	10.3	MIC = 6.7 μM	2.96	MIC = 160 μM	11.1	MIC = 35 μM	29.4	MIC = 5 μM	2.8	MIC = 80 μM	7.45	1.23	45	titers of specific IgG2a against OVA vs OVA alone (OVA [8]; OVA 5 μg + peptide 1 μg/animal, 21 days after first immunization, p<0.05): significantly greater; specific total IgG titer to OVA vs negative control group (OVA [8]; OVA 5 μg + peptide 1 μg/animal, p<0.001): statistically superior; specific IgM titer against MY32 vs PBS, MY32 and MY32 + peptide 10 μg/fish (MY32): statistically superior
IWDAIFHGAKHFLHRLVNPGGKDAVKDVQQKQ [Oreochromicin III, also recombinant or chemically synthesized]	Did not inhibit	MIC = 106 μM	19.2	MIC = 40 μM	14.1	Did not inhibit		MIC = 160 μM	37	Did not inhibit		Did not inhibit			67.4	2.99	45	total IgG titers compared to the negative control group (OVA [8]; OVA 5 μg + peptide 1.4 μg/animal, p<0.05): statistically significant differences; levels of IFN-γ vs OVA or PBS alone (OVA [7]; splenocytes stimulated with OVA 10 μg/mL, dose dependent, p<0.001): significantly higher
